These results are taken from patent US7754239B2, “Capsule for rapid solubilization and release of the content” (V. Mane Fils S.A., priority 2001, dated 2010).

A short description of the series: In vitro kinetics of release of aromatic molecules in water (test A samples). The settings on record: water 37° C., pH 6.5, 5 mm capsule of Example 3; for Total concentration of aromatic molecules over all samples: Total 0-70 seconds. It counts as physicochemical. The protocol:
A 5 mm capsule, the composition of which is given in Table 5, is analyzed according to test A.
The taking of various samples makes it possible to establish the in vitro kinetics of release of aromatic molecules in water at 37° C.+/−1° C. and at pH 6.5. Table 6 indicates the concentration of aromatic molecules of various samples.
It may be noted that most of the molecules are released within 40 s, at most within 70 s.

Turning to `CC1CCC(C(C)C)C(O)C1` (centres unmarked) [Menthol], the “Total concentration of aromatic molecules over all samples” value turned out to be 399 ppm. For the same compound, the “concentration of aromatic molecules of sample” value (“concentration … of sample” for short) (time 0-5 seconds) is on record as 47 ppm. Also, the “concentration … of sample” value (time 5-10 seconds) came to 67 ppm. Besides, the “concentration … of sample” value (time 10-15 seconds) amounted to 63 ppm. Also, the “concentration … of sample” value (time 15-20 seconds) stood at 90 ppm. The “concentration … of sample” value (time 20-30 seconds) came out at 62 ppm. Moreover, the “concentration … of sample” value (time 30-40 seconds) was determined as 24 ppm. For the same compound, the “concentration … of sample” value (time 40-50 seconds) is reported as 24 ppm. Where the note is “time 50-60 seconds”, the “concentration … of sample” value is 16 ppm. In addition, under “time 60-70 seconds”, the “concentration … of sample” value stood at 6 ppm.

As for `Cc1ccc(C(C)C)c(O)c1` [Thymol], the “Total concentration of aromatic molecules over all samples” value is 139 ppm. Also, under “time 0-5 seconds”, the “concentration … of sample” value is 19 ppm. The “concentration … of sample” value (time 5-10 seconds) was found to be 28 ppm. Moreover, where the note is “time 10-15 seconds”, the “concentration … of sample” value turned out to be 22 ppm. In addition, the “concentration … of sample” value (time 15-20 seconds) amounted to 31 ppm. Besides, where the note is “time 20-30 seconds”, the “concentration … of sample” value was determined as 20 ppm. Further, the “concentration … of sample” value (time 30-40 seconds) was 7 ppm. The “concentration … of sample” value (time 40-50 seconds) worked out at 7 ppm. Besides, the “concentration … of sample” value (time 50-60 seconds) came to 4 ppm. Besides, the “concentration … of sample” value (time 60-70 seconds) amounted to 1 ppm.
